Results taken from PMC12410356 (International Journal for Parasitology: Drugs and Drug …, 2025).

Key:
[1] = test system: E. multilocularis metacestode vesicles; assay: Phosphoglucose isomerase (PGI) release assay (damage-marker release) on metacestode vesicles; assay type: cell-based, Echinococcus multilocularis; details: 10 μM; for PGI d5 (relative PGI release): 5 days; for PGI d12 (relative PGI release): 12 days
Experimental: In order to quantify the drug-induced damage on whole metacestode vesicles, phosphoglucose isomerase (PGI) assay was performed as described previously ([Stadelmann et al., 2010]) with few adaptations published recently ([Kaethner et al., 2023]). In short, 8 to 12 weeks-old metacestode vesicles were purified using 2 % sucrose with subsequent washes in PBS. Metacestode vesicles were diluted in two volumes of DMEM without phenol red containing penicillin (100 U/mL) and streptomycin (100 μg/mL). […] 0.1 % DMSO was used as a negative solvent control and 0.1 % Triton X-100 was used as a positive total damage control. Metacestode vesicles were incubated under a humid, 5 % CO2 atmosphere at 37 °C. After five and twelve days, supernatant was taken and pictures were made using a Nikon SMZ18 stereo microscope (Nikon, Basel, Switzerland) at 7.5 × magnification. PGI activity in the supernatants was measured on a HIDEX Sense microplate reader (Hidex, Turku, Finland). The corresponding values of the DMSO controls were subtracted from the values of the compounds and then PGI activity was calculated relative to 0.1 % Triton X-100. […] IC50 values were calculated applying the 3 parameter Weibull type 1 in R for each of the three independent experiments ([Ritler et al., 2020]).

[2] = test system: E. multilocularis metacestode vesicles; assay: Metacestode vesicle viability assay (ATP, CellTiter-Glo); assay type: cell-based, Echinococcus multilocularis
Experimental: Viability was assessed after 12 days using the same metacestode vesicles as for the PGI release assay. Triton X-100 was added to each well to a final concentration of 0.1 %. Subsequently the metacestode vesicles were broken mechanically and 50 μL of the supernatant was mixed with 50 μL of CellTiter-Glo® buffer (Promega, Dübendorf, Switzerland). Measurements were performed on a HIDEX Sense microplate reader.

[3] = overview screen, singlets, relative to 0.1 % Triton X-100, DMSO subtracted
[4] = overview screen, 10 μM, singlets, 12 days, relative to DMSO control
[5] = confirmation screen, triplicates, mean
[6] = confirmation screen, 10 μM, triplicates, mean, 12 days

| Structure (SMILES) | PGI d5 (relative PGI release) [1, 3] [%] | PGI d12 (relative PGI release) [1, 3] [%] | Viability d12 (relative viability) [2, 4] [%] | PGI d5 (relative PGI release) [1, 5] [%] | PGI d12 (relative PGI release) [1, 5] [%] | Viability d12 (relative viability) [2, 6] [%] | Viability d12 (relative viability) ([2]; 10 µM) [%] |
| --- | --- | --- | --- | --- | --- | --- | --- |
| Cc1[nH]c2ccccc2c1CCNCc1ccc(/C=C/C(=O)NO)cc1 [MMV010036] | 1.148 | -1.326 | 57.5391 |  |  |  |  |
| COc1ccc2nc(-c3ccccc3)cc(O)c2c1 [MMV011565] | 5.903 | 49.0323 | 19.5448 | 0.13 | -0.59 | 78.39 |  |
| Oc1c(C(Nc2nc3ccccc3s2)c2ccc(OC(F)F)cc2)ccc2cccnc12 (stereo not drawn) [MMV019724] | 0.06264 | 0.4013 | 220.792 |  |  |  |  |
| CN1CCN(c2ccc3[nH]c(-c4ccc5[nH]c(-c6ccc(O)cc6)nc5c4)nc3c2)CC1 [MMV020752] | -2.507 | 7.527 |  |  |  |  | 69.6365 |
| Nc1nc(N)c2c(Sc3ccccc3)cccc2n1 [MMV021759] | -5.79 | -12.5973 | 37.4067 |  |  |  |  |
| Cc1nc(Nc2ccc(F)cc2)nc(N2CCc3ccccc3C2C)c1C (stereo not drawn) [MMV030787] | -1.879 | -7.918 | 56.6945 |  |  |  |  |
| Nc1nnc(-c2ccc(Cl)cc2)s1 [MMV046261] | 0.5147 | 3.499 | 11.5226 |  |  |  |  |
| NC(=O)c1c(N)sc2c1CCCCC2 [MMV056052] | 0.2417 | 3.2439 | 78.9817 |  |  |  |  |
| CC1CN(c2ncnc3c2c(-c2ccccc2)cn3-c2ccc(F)cc2)CC(C)O1 (stereo not drawn) [MMV093250] | 0.6968 | 49.8105 | 6.513 | 0.08 | -0.45 | 29.29 |  |
| COc1cc(NS(=O)(=O)c2ccc(C)cc2)c2ncccc2c1 [MMV098836] | -0.2103 | 2.3899 | 72.5053 |  |  |  |  |
| Nc1c(C(=O)NCc2ccco2)c2nc3ccccc3nc2n1CCN1CCCCC1 [MMV099714] | 2.984 | 44.8288 | 63.8129 |  |  |  |  |
| COc1cc2c(O)c3c(c(-c4ccc5c(c4)OCO5)c2cc1OC)C(=O)OC3 [MMV102270] | -1.791 | 18.1463 | 116.78 |  |  |  |  |
| O=C(Nc1nnc(-c2ccc(Cl)cc2)o1)c1nc2ccccc2s1 [MMV102833] | 3.0788 | 1.422 | 141.762 |  |  |  |  |
| CC(C)Nc1ncnc2c1cnn2-c1ccc(Cl)cc1 [MMV108465] | -2.878 | 28.117 | 65.6735 |  |  |  |  |
| CCOc1ccc(C(=O)NCCc2ccccc2)cc1 [MMV124656] | -0.3368 | 10.9951 | 194.706 |  |  |  |  |
